“Also recorded” adds a separate entry of the source.
How the values were obtained:
PI3K and p-Akt = PI3K and p-Akt western blotting in F11-derived neurons; format: cell-based; conditions: DF2726A 1 µM + oxaliplatin 20 µM, 24 h
Description: (§1) Following neuronal differentiation, neurons were treated for 24 h with DF2726A (1 μM final concentration), oxaliplatin (Sigma-Aldrich; 20 µM final concentration), or the combination of the two molecules.
(§2) Control and treated cells were collected and lysed in ice-cold RIPA buffer (PBS pH 7.4 containing 0.5% sodium deoxycolate, 1% Igepal, 0.1% SDS, 5 mM EDTA, 1% protease and phosphatase inhibitor cocktails; Sigma-Aldrich) as described in[22],[33]. Protein lysates (30 μg) were separated on 8–12% SDS-polyacrilamide gel and electroblotted onto polyvinyldifluoride membrane (PVDF; Sigma-Aldrich). Nonspecific binding sites were blocked by 5% non-fat dry milk (Bio-Rad Laboratories, Hercules, CA, USA) in Tris buffered saline (TBS: 20 mM Tris- HCl, pH 7.4, containing 150 mM NaCl) for 30 min at RT. […] The relative densities of immunoreactive bands were determined and normalized HRP-conjugated β-actin, using ImageJ software. […]

human COX2 = target: T1, human COX2 (Homo sapiens, UniProt P35354); assay: COX2 assay, PGE2 formation from arachidonic acid, recombinant enzyme; format: biochemical
T1 construct: host or cells: Sf-9
Description: Protein binding in human, dog and rat plasma […]
in DMSO at a final concentration of 2 mM. […]
plasma to obtain a final concentration of 10 µM. Human, dog and rat plasma (200 µL) in triplicate […]
vials for LC-MS/MS analysis. […]
mM Tris-HCl (pH 8.0), 1.98 mM phenol and 1.02 µM hematine. Thereafter, the reaction was initiated by adding 4 µM (COX1) or 2 µM (COX2) of arachidonic acid and the mixture was incubated for 5 min at RT. For basal control measurements, arachidonic acid was omitted from the reaction mixture. Following incubation, t he reaction was stopped by the addition of 1 M HCl then 1 M Tris/HCl (pH 8.0) followed by cooling to 4°C.
The fluorescence acceptor (d2 labeled PGE2) and the fluorescence donor (anti -PGE2 antibody labeled with europium Cryptate) were then added. After 120 min, the fluorescence transfer corresponding to the amount of residual PGE2 was measured at λex=337 nm, λem=620 nm and λem=665 nm using a microplate reader (Envision, Perkin Elmer). The enzyme activity was determined by dividing the signal measured at 665 nm by that measured at 620 nm (ratio). The results were expressed as a percent age inhibition of the control enzyme activity. The standard inhibitory reference compound was Diclofenac, which was tested in each experiment at several concentrations to obtain an inhibition curve from which its IC50 value was calculated. […]

CYP 1A2 [1] = format: in vitro ADME
Text: (§3) Table 1 Physicochemical and in Vitro ADME Properties of DF2726A. | column: DF2726A

CYP 1A2 [2] = target: CYP 1A2 (Homo sapiens, UniProt P05177); format: in vitro ADME
Text: as §3

COX2 = COX2 protein western blotting in F11-derived neurons; format: cell-based; conditions: DF2726A 1 µM + oxaliplatin 20 µM, 24 h
Description: as §1, §2

CYP 2D6 = CYP 2D6 (Homo sapiens, UniProt P10635); assay: CYP inhibition 2D6; format: in vitro ADME
Text: as §3

[3] = pKa, logD7.4, logP (SiriusT3 titration); format: physicochemical
Description: vehicle were seeded in the upper compartment. The two compartments were separated by 5 µm pre-size polycarbonate filter (polyvinylpyrrolidone-free for PMN chemotaxis). The chamber was […]
Physicochemical characterization […]
and a turbidity-sensing device. […]
water/HBSS to a final concentration of 10 μM. Cell membrane homogenates (48 μg protein) were […]

T1 sequence (P35354 18-604): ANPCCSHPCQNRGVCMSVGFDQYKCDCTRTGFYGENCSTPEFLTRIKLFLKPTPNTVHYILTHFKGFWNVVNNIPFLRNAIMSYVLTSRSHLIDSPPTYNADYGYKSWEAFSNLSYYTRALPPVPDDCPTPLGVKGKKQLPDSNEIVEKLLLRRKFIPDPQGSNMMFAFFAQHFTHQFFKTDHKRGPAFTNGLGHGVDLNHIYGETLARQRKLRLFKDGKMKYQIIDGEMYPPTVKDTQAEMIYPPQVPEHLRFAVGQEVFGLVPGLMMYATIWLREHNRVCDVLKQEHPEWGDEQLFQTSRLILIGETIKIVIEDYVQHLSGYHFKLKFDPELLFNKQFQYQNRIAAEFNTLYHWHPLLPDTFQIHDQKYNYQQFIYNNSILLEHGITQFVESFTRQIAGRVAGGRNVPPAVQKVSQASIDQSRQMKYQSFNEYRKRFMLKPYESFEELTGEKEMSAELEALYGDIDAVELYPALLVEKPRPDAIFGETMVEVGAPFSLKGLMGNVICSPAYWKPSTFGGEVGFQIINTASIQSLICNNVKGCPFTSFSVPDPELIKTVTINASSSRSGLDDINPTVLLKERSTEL
Sequence of CYP 1A2 (Homo sapiens, UniProt P05177) (P05177 whole entry): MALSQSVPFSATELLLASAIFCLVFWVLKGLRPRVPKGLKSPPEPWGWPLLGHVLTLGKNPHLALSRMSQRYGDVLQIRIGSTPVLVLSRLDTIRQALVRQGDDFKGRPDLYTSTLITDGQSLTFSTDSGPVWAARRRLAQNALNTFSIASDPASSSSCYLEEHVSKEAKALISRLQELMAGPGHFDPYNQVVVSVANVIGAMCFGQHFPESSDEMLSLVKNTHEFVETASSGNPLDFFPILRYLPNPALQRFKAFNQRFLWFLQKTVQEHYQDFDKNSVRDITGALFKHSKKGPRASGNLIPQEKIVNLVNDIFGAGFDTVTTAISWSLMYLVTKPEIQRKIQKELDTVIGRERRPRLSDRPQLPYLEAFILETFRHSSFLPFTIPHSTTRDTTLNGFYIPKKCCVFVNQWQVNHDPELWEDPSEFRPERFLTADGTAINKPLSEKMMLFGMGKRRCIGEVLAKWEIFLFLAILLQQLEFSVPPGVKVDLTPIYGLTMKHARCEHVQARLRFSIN
Sequence of CYP 2D6 (P10635 whole entry): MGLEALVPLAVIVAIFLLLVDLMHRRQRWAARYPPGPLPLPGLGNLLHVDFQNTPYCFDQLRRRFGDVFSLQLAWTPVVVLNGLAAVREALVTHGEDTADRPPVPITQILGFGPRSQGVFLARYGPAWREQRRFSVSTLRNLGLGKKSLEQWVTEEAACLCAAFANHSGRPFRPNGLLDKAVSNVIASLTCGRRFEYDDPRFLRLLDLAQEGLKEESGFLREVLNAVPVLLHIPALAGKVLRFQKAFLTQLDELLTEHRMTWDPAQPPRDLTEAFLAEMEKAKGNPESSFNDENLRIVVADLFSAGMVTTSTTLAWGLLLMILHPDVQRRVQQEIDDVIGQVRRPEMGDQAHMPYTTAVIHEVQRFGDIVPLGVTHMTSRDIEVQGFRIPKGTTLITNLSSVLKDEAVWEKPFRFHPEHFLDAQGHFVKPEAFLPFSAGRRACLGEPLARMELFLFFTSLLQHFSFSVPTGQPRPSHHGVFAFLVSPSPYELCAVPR

## CC(C)(C(=O)O)c1ccc(Nc2nc(C(F)(F)F)cs2)cc1 [DF2726A]
PI3K and p-Akt
  PI3K and p-Akt protein levels, oxaliplatin-treated neurons: comparable to those of control cells
Human COX2
  COX 2 Inhibition (50 µM): did not inhibit; also recorded: No Inhibition observed
CYP 1A2 [1]
  IC50: > 100 µM
CYP 1A2 [2]
  IC50: > 30 µM
COX2
  COX2 expression levels, oxaliplatin-treated neurons: comparable to the control
CYP 2D6
  IC50: > 30 µM
[3]
  logP: 4.3
[3]; 0.15 M KCl, 25 ± 1°C
  pKa: 4.14
[3]; pH 7.4
  logD7.4: 0.75
